Test results from US11884675B2, “Heterocyclic compounds as triggering receptor expressed on myeloid cells 2 agonists and methods of use” (AMGEN INC., priority 2020, dated 2024).
Marks after values point to notes of the source that are not given here.

Tests used:
[1] = system: hTREM2-CV knock-in transgenic mice; assay: Nanostring nCounter Murine Neuroinflammation panel, pathway analysis (PC1 scores) in hippocampi; format: in vivo, mouse
Procedure: (§1) Nanostring analysis of gene expression profiles after administration of Example 192 and a TREM2 agonist antibody in a mouse model
(§2) To assess the impact of TREM2 agonism on cellular processes and pathways, the right hemisphere hippocampi from the acute dosing of the compound of Example 192 and […] Ab-1, as described in Example A3, were analyzed for gene expression changes. Cells from frozen hippocampi were lysed, and RNA was isolated. Key gene expression profiles were analyzed using the nCounter Murine Neuroinflammation panel of 770 genes related to inflammation in the CNS. Results of individual gene expression changes relative to the mean of several housekeeper genes were grouped in pathways of interest and assigned a relative score using the nSolver analysis software.
(§3) Nanostring nSolver software includes a module for Cell Type Profiling that identifies genes linked to cell type in an experiment. […] Pathway analysis was also performed. Genes associated with the adaptive immune response, innate immune response, microglia function, cytokine signalling, and cell cycle were all increased in hippocampi from animals treated with the compound of Example 192 and Ab-1. Table 22 reports the effects of the compound of Example 192 and Ab-1 on these genes, where the values reflect PC1 scores from principal component analysis of the gene set.

hTREM2 = hTREM2 (Homo sapiens, UniProt Q9NZC2); assay: TREM2 activity by cellular Syk phosphorylation (AlphaScreen/AlphaLISA) in TREM2/DAP12-HEK cells, used for Examples 1-305; format: cell-based; parameters: expressed in transfected cells; conditions: HEK293 Cells
How it was run: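 Phospho-Syk (Tyr525/526) over total Syk quantified by AlphaScreen in lysates of cloned TREM2/DAP12-overexpressing HEK293 cells after 45 min compound treatment at room temperature, 1% final DMSO. Values expressed relative to 100 nM anti-TREM2 antibody (positive) and isotype IgG (negative) controls; curves fitted with 4-parameter logistic model.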

[2] = system: hTREM2-CV knock-in transgenic mice; assay: IP-10 and CCL2 expression in brain and plasma of mice after acute dosing (TREM2 target engagement, MSD V-PLEX); format: in vivo, mouse; conditions: 24 hours
Procedure: IP-10 expression in the brain and plasma of mice after administration of Example 192 and a TREM2 agonist antibody
To test TREM2 target engagement in an acute dosing paradigm using the compound of Example 192 (5-(4-chloro-2-fluorophenyl)-2,3-dimethyl-7-((2R,4S)-2-(1-methyl-1H-pyrazol-4-yl) tetrahydro-2H-pyran-4-yl)pyrido[3,4-b]pyrazine), hTREM2-CV knock-in transgenic mice were dosed using oral gavage (PO) twice a day (0 and 10 h) followed by sample collection at 24 hours. 6 animals received the compound of Example 192 at 50 mg/kg, and 6 animals received vehicle only (2% Hydroxypropyl Methylcellulose, 1% Tween-80 in PBS). In the same experiment, an anti-hTREM2 Antibody Ab-1 was dosed intraperitoneally (IP) at 100 mg/kg (control was a non-binding matched IgG isotype control). Ab-1 is a murinized version of a human TREM2 agonist antibody, first described as an engineered variant of antibody 13E7 in PCT Application Publication WO2018/195506A1. Ab-1 has an HC according to SEQ ID NO:9, an LC according to SEQ ID NO:10, and exemplifies an anti-TREM2 antibody having the CDRs according to SEQ ID NOS:1-6. Twenty-four hours following the zero-hour dose, mice were humanely euthanized for blood collection prior to cardiac perfusion with PBS and brain harvest. Brains were micro dissected into right and left regions of interest (including the cortex and hippocampus) for independent processing of cytokine and mRNA expression profiles. Whole blood was collected into EDTA-containing vials to prevent coagulation, and centrifuged to isolate the plasma fraction before storage at −80° C. Right and left hemisphere cortices were flash frozen in liquid nitrogen and stored at −80° C. before lysis and homogenization.
Plasma and brain lysates were analyzed for IP-10 (CXCL10) and CCL2 (MCP1) expression using a Meso Scale Discovery (MSD) multi-array reader and V-PLEX kits per manufacturer's protocols.
The upregulation of IP-10 was more robust, and so IP-10 levels were analyzed in plasma from the same experiment.

[3] = system: hTREM2-CV knock-in transgenic mice; assay: Nanostring nCounter Murine Neuroinflammation panel, Cell Type Profiling scores in hippocampi; format: in vivo, mouse
Procedure: as §1, §2, §3

[4] = PC1 score, mean score (standard deviation)
[5] = Example 192 50 mg/kg PO at 0 and 10 h, Ab-1 100 mg/kg IP, compared to vehicle-treated animals
[6] = hippocampi after acute dosing, mean score (standard deviation)
[7] = right hemisphere hippocampi, acute dosing as in Example A3

Sequence of hTREM2 (Q9NZC2 19-230): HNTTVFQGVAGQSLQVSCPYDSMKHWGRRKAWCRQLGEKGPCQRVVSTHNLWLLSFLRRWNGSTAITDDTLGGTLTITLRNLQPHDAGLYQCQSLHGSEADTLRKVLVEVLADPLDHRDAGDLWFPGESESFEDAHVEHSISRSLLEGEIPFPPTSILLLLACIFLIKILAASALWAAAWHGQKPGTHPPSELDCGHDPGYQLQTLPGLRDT
Sequence of hTREM2 (O43914 22-113 partner): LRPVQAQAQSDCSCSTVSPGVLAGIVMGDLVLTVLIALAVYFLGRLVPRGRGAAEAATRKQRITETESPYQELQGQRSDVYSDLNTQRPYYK

EC50 (hTREM2): ≤ 50 nM | hTREM2 Emax (hTREM2): ++++ (Emax>250)
SMILES: Cc1nc2cc([C@H]3CCO[C@@H](c4cnn(C)c4)C3)nc(-c3ccc(Cl)cc3F)c2nc1C (single isomer, unassigned) [Example 192]
Pathway Score Adaptive Immune Response [1, 4]: 0.639 (0.929) * | Pathway Score Cell Cycle [1, 4]: 0.398 (0.414) * | Pathway Score Cytokine Signaling [1, 4]: 0.180 (0.514) * | Pathway Score Innate Immune Response [1, 4]: 0.490 (0.674) * | Pathway Score Microglia Function [1, 4]: 0.345 (0.908) * | genes associated with cell cycle ([1]; acute dosing as in Example A3): increased | genes associated with cytokine signalling ([1]; acute dosing as in Example A3): increased | genes associated with microglia function ([1]; acute dosing as in Example A3): increased | genes associated with the adaptive immune response ([1]; acute dosing as in Example A3): increased | genes associated with the innate immune response ([1]; acute dosing as in Example A3): increased | peripheral IP-10 levels in the plasma fraction ([2]; 50 mg/kg PO at 0 and 10 h): no apparent cytokine upregulation | CCL2 (MCP1) in cortical lysates [2, 5]: induced upregulation | IP-10 (CXCL10) in cortical lysates [2, 5]: induced upregulation | Microglia Score (Cell Type Profiling) [3, 6]: 6.82 (0.090) * | astrocyte score (Cell Type Profiling) [3, 6]: 8.86 (0.077) | neuron score (Cell Type Profiling) [3, 6]: 8.81 (0.185) | astrocyte score (Cell Type Profiling) [3, 7]: no change | microglia score (Cell Type Profiling, microglial-associated genes) [3, 7]: increase | neuron score (Cell Type Profiling) [3, 7]: no change
